Assays:
[1] = Largest Soluble Hydrocarbon (LSH); type: physicochemical; details: test material to hydrocarbon ratio approximately 1:1 to 1:2 by weight, no haze to the naked eye
Method: Largest Soluble Hydrocarbon (LSH): The LSH of each hydrofluorothioether and competitive example was determined by mixing the compound with hydrocarbons of varying molecular weight (CnH2n+2, where n=9 to 24) in a test material to hydrocarbon ratio of approximately 1:1 to 1:2 by weight at room temperature (23° C.) and at 50° C. […] A larger value of n is interpreted herein to indicate a greater ability of the hydrofluorothioether to clean hydrocarbons.
Table 2 summarizes results of Largest Soluble Hydrocarbon (LSH) testing of Examples 1-3 and Comparative Examples CE1-CE5.

[2] = Atmospheric lifetime from relative rate studies with hydroxyl radicals; type: physicochemical; details: rate of reaction with hydroxyl radicals relative to CH3Cl reference
Method: Atmospheric Lifetime and Global Warming Potential (GWP): The atmospheric lifetime of each test material was determined from relative rate studies utilizing chloromethane (CH3Cl) as a reference compound. The pseudo-first order reaction rates of the reference compound and the test compound with hydroxyl radicals (·OH) was determined in a laboratory chamber system. The atmospheric lifetime of the reference compound is documented in the literature. Based on this value and the pseudo-first order rates measured in the chamber experiments, the atmospheric lifetime for each specimen was calculated from the reaction rates for the test compound relative to the reference compounds and the reported lifetime of the reference compounds as shown below:
[formula] where τx is the atmospheric lifetime of test material, τr is the atmospheric lifetime of the reference compound, and kx and kr are the rate constants for the reaction of hydroxyl radical with test material and the reference compound, respectively. The concentrations of gases in the test chamber were quantified by Fourier transform infrared spectroscopy (FTIR). The measured atmospheric lifetime value of each fluid was subsequently used for the GWP calculation.

rats = experiment: Repeat dose inhalation toxicity in rats; type: in vivo; details: 3 male rats, 750 ppm, 6-hour/day, five day repeated exposure
Method: Toxicity: The repeat dose inhalation toxicity in rats was determined by a five day repeated exposure of 3 male rats to 750 ppm of the test compound for 6 hours per day.
The repeat dose inhalation toxicity in rats was determined by a five day repeated exposure of 3 male rats to 750 ppm (6-hour/day) of Example 2.

Structure (SMILES)	LSH (n in CnH2n+2) ([1]; 23° C.)	LSH (n in CnH2n+2) ([1]; 50° C.)	Atmospheric Lifetime [2]	clinical signs of toxicity, body weights, organ weights (rats)	histopathological effects in respiratory tract, liver, kidneys (rats)
CSC(F)(F)C(F)(F)C(F)(F)C(F)(F)F [Example 1, n-C4F9—S—CH3]	18	21			
COC(F)(F)C(F)(F)C(F)(F)F [CE2, CF3(CF2)2—O—CH3]	10	10	5.0 years		
CSC(F)(C(F)(F)F)C(F)(F)F [Example 2, perfluoroisopropyl methyl thioether]	18	>23	0.01 years	no adverse clinical signs of toxicity, changes in body weights, or organ weights (lungs, liver, and kidneys)	No adverse histopathological effects were observed in the respiratory tract, liver, or kidneys
COC(F)(F)C(F)(F)C(F)(F)C(F)(F)F [CE1, n-C4F9—O—CH3]	9	9			
FC(F)(F)CC(F)(F)CCl [CE5]	14	17			
